Test results reported in article PMC11206246, “Cyclosporin A-Based PROTACs Can Deplete Abundant Cellular Cyclophilin A without Suppressing T Cell Activation” (Molecules, 2024).
Where a SMILES comes first, the peptide text is derived from it. The star is where a group is joined. Cbz = O=C(OCc1ccccc1)*

Tests used:
[1] = molecular target: T1, CypA (Homo sapiens, UniProt P62937); details: cited from earlier work
[2] = molecular target: T1, CypA; assay: Degradation of endogenous CypA in HeLa cells (western blot); type: cell-based; set-up: The degradation of endogenous CypA in HeLa cells was investigated; endogenous in cells; host or cells: HeLa; details: 1 μM epoxomicin, 3 μM MG-132, 1 μM CsA, 10 μM VHL ligand
Procedure: (§1) HeLa cells and primary human dermal fibroblasts isolated from neonatal foreskin (HDFn) were adherent cells and were cultured in commercially available, ready-to-use DMEM ([…], Gibco, Waltham, MA, USA) supplemented with 10% (v/v) FBS (Fetal Bovine Serum, Sigma-Aldrich) and antibiotics (Streptomycin/Penicillin, 1:1000 dilution) in polystyrene culture flasks. Growth conditions for all cell lines were maintained in a humidified chamber at 37 °C and 5% CO2. For subculturing or prior counting, the cells were treated with trypsin-EDTA (Life Technologies GmbH, Carlsbad, CA, USA) to detach them from the surface.
(§2) A total of 5 × 10^5 HeLa cells or HDFn was plated in 6-well plates the day before treatment. […] An amount of 200 μL PROTAC dilutions (0.1 μM and 1.0 μM) in DMSO (final concentration 0.1% (v/v)) were added to the culture medium and incubated at 37.0 °C and 5.0% CO2 for the desired time. As a blank, the cells were incubated with 200 μL DMSO under the same conditions. After the appropriate incubation time, the medium was aspirated, and the cells were washed twice with 1× PBS.
(§3) Cells were lysed in ice-cold 1× Laemmli buffer (100 mM DTT) after two washes with 1× PBS. After denaturation (95 °C for 5 min) and shearing of the DNA by sonication, the samples were loaded on Tricine-SDS-PAGE, electrophoresed, and blotted onto a PVDF membrane. After staining with S-Ponceau staining solution and blocking, the membranes were incubated overnight at 4 °C in primary rabbit anti-CypA antibody (Cell Signaling Technology #2175S, Danvers, MA, USA) and for 1 h at room temperature with secondary antibody (IRDye® 800 CW Goat anti-Rabbit IgG Secondary Antibody, LI-COR). All membranes were then reprobed with rabbit anti-beta actin (Cell Signaling Technology #4967) to ensure equal protein loading. The intensities of the bands on western blot films were quantified using the LI-COR Odyssey Imaging System and the software Image Studio Lite (version 3.1). The CypA values were normalized to β-actin, and DMSO was arbitrarily assigned a value of 100% for comparison purposes.

[3] = molecular target: T1, CypA; assay: Degradation of CypA in HDFn fibroblasts (western blot); type: cell-based; set-up: endogenous in cells; host or cells: primary PBMCs from healthy donors; details: 1 μM epoxomicin, 3 μM MG-132, 1 μM CsA, 10 μM VHL ligand
Procedure: as §1, §2, §3

T1 sequence (P62937 whole entry): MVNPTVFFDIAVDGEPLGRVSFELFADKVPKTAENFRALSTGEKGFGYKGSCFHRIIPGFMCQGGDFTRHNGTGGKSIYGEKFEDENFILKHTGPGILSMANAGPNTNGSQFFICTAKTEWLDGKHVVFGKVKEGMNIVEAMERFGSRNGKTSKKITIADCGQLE

Row | Structure (SMILES) | CypA inhibitor potency [1] | effect of 1 h pre-treatment with the substance on CypA degradation by P3 or P5 [2] | effect of 1 h pre-treatment with the substance on CypA degradation by P3 or P5 [3]
1 | C/C=C/C[C@@H](C)[C@@H](O)[C@H]1C(=O)N[C@@H](CC)C(=O)N(C)[C@H](C)C(=O)N(CC)[C@@H](C(C)C)C(=O)N[C@@H](C(C)C)C(=O)N(C)[C@@H](CC(C)C)C(=O)N[C@@H](C)C(=O)N[C@H](C)C(=O)N(C)[C@@H](CC(C)C)C(=O)N(C)[C@@H](CC(C)C)C(=O)N(C)[C@@H](C(C)C)C(=O)N1C [Alisporivir] | low nM |  | 
2 | CC[C@H](C)[C@H](NC(=O)[C@H]([C@@H](C)CC)N(C)C(C)=O)C(=O)N[C@H](C(=O)N[C@@H](CC(C)C)C(=O)[C@@]1(C)CO1)[C@@H](C)O [Ep, epoxomicin] |  | suppressed | suppressed
3 | CC(C)C[C@@H](C=O)NC(=O)[C@H](CC(C)C)NC(=O)[C@H](CC(C)C)NC(=O)OCc1ccccc1 [MG-132] (Cbz-Leu-Leu-Leu-aldehyde) |  | suppressed | suppressed
4 | Cc1ncsc1-c1ccc(CNC(=O)[C@@H]2C[C@@H](O)CN2C(=O)[C@@H](N)C(C)(C)C)cc1 [VHL ligand 1] |  | recovery of CypA band | recovery of CypA band
